Experimental data: ChEMBL document CHEMBL3045584, “1-(6-Halonicotinyl)-2-nitromethylene-imidazolidines as Potential New Insecticides” (1992)
Active and inactive are the calls of the source. The calls are words filed in the database; no cut-off is given here.

test system: Nephotettix cincticeps; test: Insecticidal activity against Nephotettix cincticeps (green rice leafhopper) measured after 5 days; format: functional

SMILES	LC90 [ppm]
Cc1ccc(CN2CCN/C2=C\[N+](=O)[O-])cc1	200
O=[N+]([O-])/C=C1\NCCN1Cc1ccc(C(F)(F)F)nc1	8
O=[N+]([O-])/C=C1\NCCN1Cc1cncc(Cl)c1	40
O=[N+]([O-])C=C1NCCN1 [2-(NITROMETHYLENE)IMIDAZOLIDINE]	1000
COc1ccc(CN2CCN/C2=C\[N+](=O)[O-])cc1	200
Cc1ccc(CN2CCN/C2=C\[N+](=O)[O-])cn1	1.6
O=[N+]([O-])/C=C1\NCCN1Cc1ccc(Cl)cc1	40
CSc1ccc(CN2CCN/C2=C\[N+](=O)[O-])cn1	1000
O=[N+]([O-])/C=C1\NCCN1Cc1ccccc1	200
N#Cc1ccc(CN2CCN/C2=C\[N+](=O)[O-])cn1	200
O=[N+]([O-])/C=C1\NCCN1Cc1cccnc1	8
O=[N+]([O-])/C=C1\NCCN1Cc1ccc([N+](=O)[O-])cc1	200
O=[N+]([O-])/C=C1\NCCN1Cc1ccncc1	8
O=[N+]([O-])/C=C1\NCCN1Cc1cccc(Cl)c1	200
O=[N+]([O-])/C=C1\NCCN1Cc1ccc(Cl)cn1	200
O=[N+]([O-])/C=C1\NCCN1Cc1ccnc(Cl)c1	200
O=[N+]([O-])/C=C1\NCCN1Cc1cccnc1Cl	200
O=[N+]([O-])/C=C1\NCCN1Cc1ccccn1	200
O=[N+]([O-])/C=C1\NCCN1Cc1ccc(Cl)nc1	0.32
O=[N+]([O-])/C=C1\NCCN1Cc1ccc(Br)nc1	0.32
O=[N+]([O-])/C=C1\NCCN1Cc1ccc(F)nc1	0.32

test system: Nephotettix cincticeps; test: Insecticidal activity against Nephotettix cincticeps (green rice leafhopper) measured at 100 ppm after 5 days; format: functional, organism-based

SMILES	LC90
O=[N+]([O-])/C=C1\NCCN1Cc1ccccc1Cl	inactive
